Assay results published in patent publication US12583851B2, “Heteroaryl-substituted pyrazine derivatives as pesticides” (Elanco Animal Health GmbH, priority 2019, dated 2026).

Key:
Format in all cases: in vivo
[1] = system: Rhipicephalus (Boophilus) microplus larvae (strain Parkhurst, resistant against synthetic pyrethroids); experiment: Rhipicephalus (Boophilus) microplus in-vitro contact test, larval cattle tick; conditions: after 48 hours, read-out: efficacy (larvae dead or moribund); for pest or weed control at 1 µg/cm2, 100 g/ha: 1 μg/cm^2 (=100 g/ha); for pest or weed control at 5 µg/cm2, 500 g/ha: 5 μg/cm^2 (=500 g/ha)
Protocol: Rhipicephalus (Boophilus) microplus—In-Vitro Contact Tests Larval Cattle Tick (Strain Parkhurst, Resistant Against Synthetic Pyrethroids)
9 mg compound is solved in 1 mL acetone and diluted with acetone to the desired concentration. […] the test solution is filled in 25 mL glass test tubes and homogeneously distributed on the inner walls by rotation and tilting on a shaking device (2 h at 30 rpm). With a compound concentration of 900 ppm, an inner surface of 44.7 cm^2 and a homogeneous distribution, a dose of 5 μg/cm^2 is achieved.
After the solvent has evaporated, each test tube is filled with 20-50 cattle tick larvae (Rhipicephalus microplus), closed with a perforated lid and incubated in a horizontal position at 85% relative humidity and 27° C. in an incubator. After 48 hours efficacy is determined. The larvae are patted on the ground of the tubes and negative geotactic behaviour is recorded.
An efficacy of 100% means all larvae are dead or moribund; 0% means no larvae are dead or moribund.

[2] = system: larvae of the banded cucumber beetle (Diabrotica balteata); experiment: Diabrotica balteata spray test; conditions: 168 h, after 7 days, read-out: efficacy (seedling growth); for pest or weed control at 32 µg/disc, 100 g/ha: 100 g/ha (=32 μg/well); for pest or weed control at 6.4 µg/disc, 20 g/ha: 20 g/ha (=6.4 μg/well)
Protocol: Diabrotica balteata—Spray Test
Solvent: 78.0 parts by weight of acetone • • 1.5 parts by weight of dimethylformamide
(§1) Emulsifier: alkylarylpolyglycol ether
(§2) To produce a suitable preparation of active compound, 1 part by weight of active compound is mixed with the stated amount of solvent, and the concentrate is diluted with water, containing an emulsifier concentration of 1000 ppm, to the desired concentration. Further test concentrations are prepared by dilution with emulsifier containing water.
Soaked wheat seeds (Triticum aestivum) are placed in a multiple well plate filled with agar and some water and are incubated for 1 day to germinate (5 seeds per well). The germinated wheat seeds are sprayed with a test solution containing the desired concentration of the active ingredient. Afterwards each unit is infected with 10-20 larvae of the banded cucumber beetle (Diabrotica balteata).
After 7 days efficacy in % is determined. 100% means all the seedlings have grown up like in the untreated, uninfected control; 0% means none of the seedlings have grown.

[3] = system: fall armyworm larvae (Spodoptera frugiperda); experiment: Spodoptera frugiperda spray test; conditions: 168 h, maize leaf sections, after 7 days
Protocol: Spodoptera fruaiperda—Spray Test
Solvent: 78.0 parts by weight acetone • 1.5 parts by weight dimethylformamide
as §1
as §2, with “solvents” for “solvent,”, “and” for “and the concentrate”
Maize (Zea mays) leaf sections are sprayed with a preparation of the active ingredient of the desired concentration. Once dry, the leaf sections are infested with fall armyworm larvae (Spodoptera frugiperda).
After 7 days mortality in % is determined. 100% means all caterpillars have been killed and 0% means none of the caterpillars have been killed.

| Compound | pest or weed control at 1 µg/cm2, 100 g/ha [1] [%] | pest or weed control at 5 µg/cm2, 500 g/ha [1] [%] | pest or weed control at 32 µg/disc, 100 g/ha [2] [%] | mortality at 100 g/ha [3] [%] | pest or weed control at 6.4 µg/disc, 20 g/ha [2] [%] |
| --- | --- | --- | --- | --- | --- |
| CC(NC(=O)c1cc(Cl)cc(C(F)(F)F)c1)c1nccnc1-c1ccc(C(F)(F)F)cn1 (racemic) [Example I-46, (rac)-3-Chloro-5-(trifluoromethyl)-N-[1-{3-[5-(trifluoromethyl)pyridin-2-yl]pyrazin-2-yl}ethyl]benzamide] | 100 | 100 | 100 | 100 |  |
| CC(NC(=O)c1cc(C(F)(F)F)cc(C(F)(F)F)c1)c1nccnc1-c1ncc(C(=O)N(C)CC2CC2)s1 (racemic) [Example I-51, (rac)-2-(3-{1-[3,5-Bis(trifluoromethyl)benzamido]ethyl}pyrazin-2-yl)-N-(cyclopropylmethyl)-N-methyl-1,3-thiazole-5-carboxamide] | 90 | 90 | 100 | 100 | 100 |
| CC(NC(=O)c1cc(C(F)(F)F)cc(C(F)(F)F)c1)c1nccnc1-c1ncc(C(=O)N(C)C)s1 (racemic) [Example I-69, (rac)-2-(3-{1-[3,5-Bis(trifluoromethyl)benzamido]ethyl}pyrazin-2-yl)-N,N-dimethyl-1,3-thiazole-5-carboxamide] | 100 | 100 | 100 | 100 | 100 |
| CC(NC(=O)c1cc(Br)cc(OC(F)(F)F)c1)c1nccnc1-c1ncc(C(=O)N(C)CC#N)s1 (racemic) [Example I-75, (rac)-2-(3-{1-[3-Bromo-5-(trifluoromethoxy)benzamido]ethyl}pyrazin-2-yl)-N-(cyanomethyl)-N-methyl-1,3-thiazole-5-carboxamide] | 90 | 90 | 100 | 100 |  |
| CC(NC(=O)c1cc(Br)cc(OC(F)(F)F)c1)c1nccnc1-c1ncc(C(=O)N(C)CC2CC2)s1 (racemic) [Example I-76, (rac)-2-(3-{1-[3-Bromo-5-(trifluoromethoxy)benzamido]ethyl}pyrazin-2-yl)-N-(cyclopropylmethyl)-N-methyl-1,3-thiazole-5-carboxamide] | 100 | 100 | 100 | 100 | 100 |
| CCN(C)C(=O)c1cnn(-c2nccnc2C(C)NC(=O)c2cc(C(F)(F)F)cc(C(F)(F)F)c2)c1 (racemic) [Example I-89, (rac)-1-(3-{1-[3,5-Bis(trifluoromethyl)benzamido]ethyl}pyrazin-2-yl)-N-ethyl-N-methyl-1H-pyrazole-4-carboxamide] | 100 | 100 | 100 | 100 | 100 |
| CC(NC(=O)c1cc(C(F)(F)F)cc(C(F)(F)F)c1)c1nccnc1-n1cc(C(=O)N2CCOCC2)cn1 (racemic) [Example I-90, N-[(rac)-1-{3-[4-(Morpholine-4-carbonyl)-1H-pyrazol-1-yl]pyrazin-2-yl}ethyl]-3,5-bis(trifluoromethyl)benzamide] | 100 | 100 | 100 | 100 |  |
| CC(NC(=O)c1cc(C(F)(F)F)cc(C(F)(F)F)c1)c1nccnc1-n1cc(C(F)(F)F)cn1 (racemic) [Example I-92, (rac)-3,5-Bis(trifluoromethyl)-N-[1-{3-[4-(trifluoromethyl)-1H-pyrazol-1-yl]pyrazin-2-yl}ethyl]benzamide] | 100 | 100 | 100 | 100 | 100 |
| CC(NC(=O)c1cc(C(F)(F)F)cc(C(F)(F)F)c1)c1nccnc1-n1cc(C#N)cn1 (racemic) [Example I-100, N-{(rac)-1-[3-(4-Cyano-1H-pyrazol-1-yl)pyrazin-2-yl]ethyl}-3,5-bis(trifluoromethyl)benzamide] | 100 | 100 | 100 | 100 | 100 |
| CC(NC(=O)c1cc(Br)cc(OC(F)(F)F)c1)c1nccnc1-n1cc(C#N)cn1 (racemic) [Example I-102, (rac)-3-Bromo-N-{1-[3-(4-cyano-1H-pyrazol-1-yl)pyrazin-2-yl]ethyl}-5-(trifluoromethoxy)benzamide] | 90 | 90 | 100 | 100 | 100 |
| CC(NC(=O)c1cc(Br)cc(C(F)(F)F)c1)c1nccnc1-n1cc(C#N)cn1 (racemic) [Example I-113, (rac)-3-Bromo-N-{1-[3-(4-cyano-1H-pyrazol-1-yl)pyrazin-2-yl]ethyl}-5-(trifluoromethyl)benzamide] | 100 | 100 | 100 | 100 | 100 |
| CC(NC(=O)c1cc(Cl)cc(S(=O)(=O)C(F)(F)F)c1)c1nccnc1-n1cc(C#N)cn1 (racemic) [Example I-114, (rac)-3-Chloro-N-{1-[3-(4-cyano-1H-pyrazol-1-yl)pyrazin-2-yl]ethyl}-5-(trifluoromethanesulfonyl)benzamide] | 90 | 90 | 100 | 100 |  |
| CC(NC(=O)c1cc(C#N)cc(C(F)(F)F)c1)c1nccnc1-n1cc(C#N)cn1 (racemic) [Example I-115, (rac)-3-Cyano-N-{1-[3-(4-cyano-1H-pyrazol-1-yl)pyrazin-2-yl]ethyl}-5-(trifluoromethyl)benzamide] | 100 | 100 | 100 | 100 | 100 |
| CC(NC(=O)c1cc(C#N)cc(OC(F)(F)F)c1)c1nccnc1-n1cc(C#N)cn1 (racemic) [Example I-116, (rac)-3-Cyano-N-{1-[3-(4-cyano-1H-pyrazol-1-yl)pyrazin-2-yl]ethyl}-5-(trifluoromethoxy)benzamide] | 90 | 100 | 100 | 100 | 100 |
| CC(NC(=O)c1cc(Br)cc(C(F)(F)F)c1)c1nccnc1-c1ncc(C(=O)N2C[C@@H](C)O[C@@H](C)C2)s1 (mixture of isomers) [Example I-120, (rac)-3-Bromo-N-[1-(3-{5-[(cis)-2,6-dimethylmorpholine-4-carbonyl]-1,3-thiazol-2-yl}pyrazin-2-yl)ethyl]-5-(trifluoromethyl)benzamide] | 100 | 100 | 100 | 100 |  |
| Cc1cnc(C(C)NC(=O)c2cc(C(F)(F)F)cc(C(F)(F)F)c2)c(-c2ncc(C(=O)N(C)CC#N)s2)n1 (racemic) [Example I-124, (rac)-2-(3-{1-[3,5-Bis(trifluoromethyl)benzamido]ethyl}-6-methylpyrazin-2-yl)-N-(cyanomethyl)-N-methyl-1,3-thiazole-5-carboxamide] | 100 | 100 | 100 | 100 | 100 |
